Series [1] relates to rat surgical incision injury model. The experiment in a line: Rat surgical incision injury model, von Frey paw withdrawal threshold. In kind it is in vivo, SD rats. The settings on record: rats, intravenous 0.3 mg/kg. The source says: 8-week-old male SD rats weighing 200 g-300 g were used as experimental animals to determine the effect of the compound of Example H02, the compound of Example H04, the compound of Example H10, the compound of Example H16, the compound of Example H17, the compound of Example H18, the compound of Example H21 and the compound of Example H24 on surgical pain in rats after intravenous administration. The analgesic effect of the compounds was discussed.
A certain amount of the compounds or TRV130 (MCE, 15150) was weighed, and dissolved in ethanol/castor oil/water=10/10/80 as a clear and transparent solution.
Three days after the rats were acclimatized to the experimental environment, the preoperative base value was determined, and followed by the surgical pain operation described below, about 24 hours after the surgery, the basic value was measured before administration on all animals, and mechanically hypersensitive animals (the paw withdrawal threshold (PWT) was less than 5 g) was randomly assigned to each administration group according to PWT. The pain threshold was determined 30 minutes and 60 minutes after intravenous administration of the positive drug TRV130 or each compound of the present invention (at a dose of 0.3 mg/kg).
The surgical procedure was performed aseptically, and the surgical instruments (scissors, tweezers, scalpels, surgical cotton and sutures) were sterilized before surgery. The animals were anesthetized with sodium pentobarbital (50 mg/kg, injected intraperitoneally), and the toes of the animals were squeezed to confirm that the animals were completely anesthetized before surgery. From the position of 0.5 cm away from the heel, an incision about 1 cm was made in the longitudinal direction of the toe. After cutting the skin, the musculus flexor digitorum brevis was raised and a blunt injury was caused longitudinally. After pressing to stop bleeding, the wound was sutured. When the animal was completely awake (free to move), the animal was put back into the cage (the reference of the construction of surgical pain model: Timothy J. Brennan, Erik P. Vandermeulen, G. F. Gebhart. Characterization of a rat model of incisional pain. Pain, 64(1996):493-501).
An up-down method was used for the determination of pain sensitivity. The mechanical pain results were expressed as animal paw withdrawal response threshold (PWT). The rat was placed separately in a plexiglass box with a mesh at the bottom of the box to ensure that the rat's feet could be tested. The rat was acclimatized for 15 minutes before the test, and after the acclimatization, the test fiber (von frey fiber, West coast) was used to test in the middle part of the hind foot of the rat. The test fibers included 8 test strengths: 3.61 (0.4 g), 3.84 (0.6 g), 4.08 (1 g), 4.31 (2 g), 4.56 (4 g), 4.74 (6 g), 4.93 (8 g), and 5.18 (15 g). During the test, the test fiber was pressed vertically against the skin and a force was applied to bend the fiber for 6-8 seconds, at an interval of 5 seconds between each test. During the test, the animal's rapid withdrawal was recorded as a pain response. When the test fiber left the animal's skin, the animal's withdrawal was also recorded as a pain response. Starting from 2 g, depending on whether the rats had any pain response, the test was changed into the next test intensity or the previous test intensity. A series of responses of the rats to different test intensities were recorded. […] Wherein, Xf was the logarithmic value of von Frey fiber used in the last test, and K value was the animal withdrawal reaction mode (recorded during the test), which was the value obtained after looking up the table according to the obtained sequence of “X” and “O”, δ=Mean of logarithmic difference between von Frey fibers used in the test.

The target in the next series is T1, μ opioid receptor (MOR) (Homo sapiens, UniProt P35372).
T1 construct: host or cells: HEK293
The experiment in a line: cell-based. The settings on record: HEK293 stably expressing μ opioid receptor, FLIPR calcium. As for the experimental part: The purpose of the experiment was to test the agonistic effects of the compounds of the present invention on μ opioid receptor (MOR), κ opioid receptor (KOR) and δ opioid receptor (DOR), and to evaluate in vitro activity of the compounds according to the half-maximal effect concentration (EC50).
This test was performed using HEK293 cell lines (the stably expressed cell lines were provided by WuXi AppTec) which stably expressed μ opioid receptor, δ opioid receptor or κ opioid receptor respectively. […] The cells were centrifuged at 1000 rpm for 5 minutes at room temperature to precipitate. The supernatant was sucked out, be careful not to suck out cells. The precipitate was flicked into the loose cells and resuspend in 45 ml DMEM medium. The Vi-CELL XR automatic cell viability detector (BECKMAN COULTER) was used to count the cells, and the cell concentration was adjusted to 10×10^5 cells/ml based on the counting results.
Preparation of probenecid mother solution: 1 ml of FLIPR test solution was added to 77 mg probenecid to prepare a 250 mM solution. The solution was freshly prepared just before use.
The solution was freshly prepared just before use.
The cell plate prepared above was removed from the incubator and 20 ul 2× Fluo-4 Direct™ buffer was added thereto. The final volume in the cell plate was […]. The plate was incubated at 37° C., under 5% CO2 for 50 minutes, and incubated at room temperature for 10 minutes, then was placed into the FLIPR instrument (MD), and the compound plate and pipette box was placed into. The protocol was run on the […] platform, 10 μl of positive drug or the test compound was transfered to the cell plate from the compound plate, and the fluorescent signal was read.
The signal value generated by each well was calculated, and the calculation formula was that: the activity %=(signal value of the test compound−signal value of the solvent)/(signal value of the positive drug−signal value of the solvent).

In series [2] the target is T2, cAMP pathway of MOR receptor (Homo sapiens, UniProt P35372).
T2 construct: host or cells: HEK293 (cAMP Hunter cell line)
The experiment in a line: cell-based. The settings on record: cAMP Hunter HEK293 cells, forskolin-induced cAMP; read-out: EC50 of cAMP levels affected by agonistic effect on MOR. From the text: The purpose of this experiment was to test the agonistic effect of the compounds of the invention on the cAMP pathway of MOR and to evaluate the in vitro activity of the compounds according to EC50.
In this experiment, HitHunter cAMP Assay EFC technology of DiscoverX was used to measure the cAMP level in cells and monitor the functional status of G-protein coupled receptors (GPCRs).
The amount of signal produced was directly proportional to the amount of cAMP in the cell.
The MOR receptor was bound to the inhibitory Gαi protein, so forskolin (for inducing cAMP signal) was used to induce cAMP expression in the experiment, and the inhibitory effect of the compounds on the above induction was measured.
The cAMP Hunter cell line (HEK293, DiscoverX) was removed from the freezer and expanded according to the Cell Standard Operating Procedure (SOP), 20 μL was collected and inoculated into a 384-well microplate and incubated at 37° C. overnight.
The HitHunter cAMP Assay test kit (DiscoverX, 90-0075sm) was used, the kit contained cAMP buffer, cAMP detection solution, and cAMP working solution A.
The formula was used to calculate the percentage of signal activity per well=100%×(1−(average RLU of the test samples−average RLU of the MAX controls)/(average RLU of the solvent controls−average RLU of the MAX controls)). wherein, the MAX control referred to the fluorescence signal value of the endorphin solution, and the solvent control referred to the fluorescence signal value of DMSO. The DiscoveRx CBIS data analysis workstation (ChemInnovation, CA) was used to perform statistical analysis of the percentage of signal activity and the concentration of the compounds by the agonist formula (comes with the software, universal) to calculate the EC50 value.
For orientation: Cyclic AMP is a second messenger, typically raised through Gs and lowered through Gi signalling.

For series [3], the target named is T3, β-arrestin signaling pathway of MOR (Homo sapiens, UniProt P35372).
T3 construct: host or cells: HEK293 (PathHunter cell line)
The experiment in a line: cell-based. The note with it: PathHunter HEK293 cells, relative to endorphin MAX control.

In another series the test system is SD rats. The experiment in a line: Respiratory depression in rats, arterial blood gas PCO2. Type of series: in vivo. From the text: 8-week-old male SD rats weighing 200 g-300 g were used as experimental animals to determine the effect of the compound of Example H05, the compound of Example H08, the compound of Example H10, the compound of Example H16, the compound of Example H17, the compound of Example H18, the compound of Example H21, and the compound of Example H24 on the partial pressure of blood in rats after intravenous administration. The effects of the compounds of the invention on respiratory depression were investigated.
After the rats were acclimatized to the experimental environment for 3 days, each animal was anesthetized with sodium pentobarbital (50-60 mg/kg, ip), and then the right common carotid artery was isolated and the unilateral carotid artery tube-bury surgery was performed (PE60, ID*OD*length as 0.76 mm*1.22 mm*20 cm, buried into the artery 1 cm deep, and the tube was filled with heparin sodium tube sealing solution).

SMILES strings stand for the structures.

One may read the EC50 as the concentration that produces a half-maximal response. Broadly, the Emax is the maximal effect, on the per cent scale that the assay sets.

T3 sequence (P35372 whole entry): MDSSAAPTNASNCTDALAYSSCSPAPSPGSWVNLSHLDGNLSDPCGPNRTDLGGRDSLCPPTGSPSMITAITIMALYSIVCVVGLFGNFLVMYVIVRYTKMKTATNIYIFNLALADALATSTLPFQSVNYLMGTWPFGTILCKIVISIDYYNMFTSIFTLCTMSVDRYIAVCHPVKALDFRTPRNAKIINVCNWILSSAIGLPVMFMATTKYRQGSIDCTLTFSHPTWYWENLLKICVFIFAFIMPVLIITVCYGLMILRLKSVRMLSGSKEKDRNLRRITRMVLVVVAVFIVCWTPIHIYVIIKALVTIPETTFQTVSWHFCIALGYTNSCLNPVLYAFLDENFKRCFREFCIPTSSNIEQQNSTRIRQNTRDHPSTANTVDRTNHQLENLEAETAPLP
T1 sequence (P35372 whole entry, species assumed): as the sequence (P35372 whole entry) above
T2 sequence (P35372 whole entry): as above

For `COc1ccsc1CNCC[C@@]1(c2ccccn2)CCOC2(CCCC2)C1` [TRV130, reference compound], in series [1], the “50% PWT, 30 min after administration” value was determined as 6.05 ± 0.44 g and the “50% PWT, 60 min after administration” value was 5.71 ± 0.33 g.
`Cc1cc(F)cnc1C1(CCNCc2ccccc2OC(F)(F)F)CCOC2(CCCC2)C1` (stereo not drawn) [Example H10, (2-trifluoromethoxybenzyl)-[2-(9-(3-methyl-5-fluoropyridin-2-yl)-6-oxaspiro[4.5]decan-9-yl)ethyl]amine]: the values for the EC50 (on μ opioid receptor (MOR); in series [2]) were 2.15 nM and 2.89 nM, respectively. In series [3], the Emax was determined as 3.7%. Also, in series [1], the “50% PWT, 30 min after administration” value is given as 8.05 ± 0.24 g. Moreover, the “50% PWT, 60 min after administration” value in series [1] was found to be 7.59 ± 1.02 g. Besides, the “PCO2, 5 min before administration” value with SD rats (arterial blood, before administration) came out at 35.72 ± 1.88 mmHg. The “PCO2, 5 min after administration” value in the series on SD rats (intravenous single dose 0.3 mg/kg (morphine 24 mg/kg), 5 min) came to 37.48 ± 1.94 mmHg. Also, the “PCO2, 30 min after administration” value in the series on SD rats (intravenous single dose 0.3 mg/kg (morphine 24 mg/kg), 30 min) turned out to be 35.03 ± 1.89 mmHg. In the series with SD rats (intravenous single dose 0.3 mg/kg (morphine 24 mg/kg), 60 min), the “PCO2, 60 min after administration” value was 36.27 ± 1.67 mmHg. Also, the “PCO2, 120 min after administration” value in the series on SD rats (intravenous single dose 0.3 mg/kg (morphine 24 mg/kg), 120 min) turned out to be 36.83 ± 1.85 mmHg.

The record behind these values is patent US11072601B2, “μ-opioid receptor agonist and preparation method therefor and use thereof in field of medicine” (SHANGHAI SYNERGY PHARMACEUTICAL SCIENCES CO., LTD., priority 2017, dated 2021).
